The target of assay [1] is T1, aldose reductase enzyme obtained from calf lens (Bos taurus, UniProt P16116).
T1 construct: partially purified aldose reductase enzyme obtained from calf lens; from tissue; host or cells: calf lens
In words: inhibition of aldose reductase enzyme activity (procedure of S. Hayman et al., modified by K. Sestanj et al.). The format is biochemical. Particulars: partially purified calf lens aldose reductase, read-out: Percent Inhibition (%); for inhibition at 10 µM: 10^-5M; for inhibition at 1 µM: 10^-6M; for inhibition at 0.1 µM: 10^-7M. As for the experimental part: (§1) The activity of the compounds of the present invention, as agents for the control of chronic diabetic complications, is determined by their ability to successfully pass one or more of the following standard biological or pharmacological tests, viz., (1) measuring their ability to inhibit the enzyme activity of isolated aldose reductase; (2) measuring their ability to reduce or inhibit sorbitol accumulation in the sciatic nerve of acutely streptozotocinized (i.e., diabetic) rats; (3) measuring their ability to reverse already-elevated sorbitol levels in the sciatic nerve and lens of chronic streptozotocin-induced diabetic rats; (4) measuring their ability to prevent or inhibit galactitol formation in the lens of acutely galactosemic rats, and (5) measuring their ability to delay cataract formation and reduce the severity of lens opacities in chronic galactosemic rats.
The following s^piro-oxindole oxazolidinedione final products of Examples 1-4, respectively, were tested for their ability to reduce or inhibit aldose reductase enzyme activity via the procedure of S. Hayman et al., as described in the Journal of Biological Chemistry, Vol 240, p.. 877 (1965) and as modified by K. Sestanj et al. in U.S. Patent No. 3,821,383. In every case, the substrate employed was partially purified aldose reductase enzyme obtained from calf lens.

Assay [2] has as its system sorbitol levels in diabetic rats. As to the kind of experiment: inhibition of sorbitol formation/accumulation in diabetic rats. The format is in vivo. Particulars: oral route, dose levels ranging from 0.5 mg./kg. to 20 mg./kg.
Excerpt: As previously indicated, the spiro-oxindole oxazolidinedione compounds of this invention are readily adapted to therapeutic use as aldose reductase inhibitors for the control of chronic diabetic com^pli- cations, in view of their ability to reduce lens sorbitol levels in diabetic subjects to a statistically significant degree. […] Furthermore, the herein described compounds of this invention can be administered by either the oral or parenteral routes of administration. […]
as §1

The values below come from patent publication EP0079675A1, “Oxazolidinedione derivatives” (PFIZER INC., priority 1981, dated 1983).

What is called inhibition is the relative decrease from the control value, in per cent. Regarding `O=C1NC(=O)C2(O1)C(=O)N(c1ccc(F)cc1)c1ccc(F)cc12` (centres unmarked) [Product of Example 1, 1-(p-fluorophenyl)-5-fluoro-spiro-[indoline-3,5-oxazolidine]-2,2',4'-trione], in assay [1], the inhibition at 10 µM was found to be 87%, the inhibition at 1 µM was found to be 65% and the inhibition at 0.1 µM came to 25%.
`CC(C)N1C(=O)C2(OC(=O)NC2=O)c2cc(Cl)ccc21` (centres unmarked) [Product of Example 2, 1-isopropyl-5-chloro-s^piro-[indoline-3,5'-oxazolidine]-2,2',4'-trione]: in assay [1], the inhibition at 10 µM was 80%, the inhibition at 1 µM was 45% and the inhibition at 0.1 µM is 17%.
Taken in the same sequence, the figures for `CN1C(=O)C2(OC(=O)NC2=O)c2cc(Cl)ccc21` (centres unmarked) [Product of Example 3] were 67%, 31% and 10%.
With `O=C1NC(=O)C2(O1)C(=O)N(Cc1ccc(Cl)cc1)c1ccc(Cl)cc12` (centres unmarked) [Product of Example 4, 1-(p-chlorobenzyl)-5-chloro-spiro-(indoline-3,5'-oxazolidine]-2,2',4'-trione], the inhibition at 100 µM in assay [1] (10^-4M) was found to be 100%. Also, in assay [1], the inhibition at 10 µM was 89%, the inhibition at 1 µM stood at 81% and the inhibition at 0.1 µM is 60%. Besides, in assay [2], the “inhibit the formation of sorbitol levels” value is listed as “to a significantly high degree”.
